Measurements taken from PMC11480411, “Mucosal sugars delineate pyrazine vs pyrazinone autoinducer signaling in Klebsiella oxytoca” (Nature Communications, 2024).
Several values for one entry are separate records, joined by “and”; a condition that tells them apart may be missing. Identical values can stand only once.

How the values were obtained:
Type in all cases: cell-based
NPS = target: T1, NPS (Homo sapiens, UniProt Q6W5P4); assay: PRESTO-Tango GPCR screen; conditions: 100 µM
T1 construct: purchased PRESTO-Tango GPCR kit (Roth lab / Addgene)
How it was run: (§1)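 HTLA cells (HEK293 stably expressing β-arrestin-TEV and tTA-luciferase) were transiently transfected with GPCR-Tango plasmids using polyethylenimine. After 16-24 h they were stimulated with compound at 100 μM final for 20 h. Luminescence was read with Bright-Glo and expressed as fold activation over PBS control.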

P2RY13 = target: T2, P2RY13 (Homo sapiens, UniProt Q9BPV8); assay: PRESTO-Tango GPCR screen; conditions: 100 µM
T2 construct: purchased PRESTO-Tango GPCR kit (Roth lab / Addgene)
How it was run: as §1

S1PR1 = target: T3, S1PR1 (Homo sapiens, UniProt P21453); assay: PRESTO-Tango GPCR screen; conditions: 100 µM
T3 construct: purchased PRESTO-Tango GPCR kit (Roth lab / Addgene)
How it was run: as §1

GPR133 = target: T4, GPR133 (Homo sapiens, UniProt Q6QNK2); assay: PRESTO-Tango GPCR screen; conditions: 100 µM
T4 construct: purchased PRESTO-Tango GPCR kit (Roth lab / Addgene)
T4 sequence (Q6QNK2 26-874): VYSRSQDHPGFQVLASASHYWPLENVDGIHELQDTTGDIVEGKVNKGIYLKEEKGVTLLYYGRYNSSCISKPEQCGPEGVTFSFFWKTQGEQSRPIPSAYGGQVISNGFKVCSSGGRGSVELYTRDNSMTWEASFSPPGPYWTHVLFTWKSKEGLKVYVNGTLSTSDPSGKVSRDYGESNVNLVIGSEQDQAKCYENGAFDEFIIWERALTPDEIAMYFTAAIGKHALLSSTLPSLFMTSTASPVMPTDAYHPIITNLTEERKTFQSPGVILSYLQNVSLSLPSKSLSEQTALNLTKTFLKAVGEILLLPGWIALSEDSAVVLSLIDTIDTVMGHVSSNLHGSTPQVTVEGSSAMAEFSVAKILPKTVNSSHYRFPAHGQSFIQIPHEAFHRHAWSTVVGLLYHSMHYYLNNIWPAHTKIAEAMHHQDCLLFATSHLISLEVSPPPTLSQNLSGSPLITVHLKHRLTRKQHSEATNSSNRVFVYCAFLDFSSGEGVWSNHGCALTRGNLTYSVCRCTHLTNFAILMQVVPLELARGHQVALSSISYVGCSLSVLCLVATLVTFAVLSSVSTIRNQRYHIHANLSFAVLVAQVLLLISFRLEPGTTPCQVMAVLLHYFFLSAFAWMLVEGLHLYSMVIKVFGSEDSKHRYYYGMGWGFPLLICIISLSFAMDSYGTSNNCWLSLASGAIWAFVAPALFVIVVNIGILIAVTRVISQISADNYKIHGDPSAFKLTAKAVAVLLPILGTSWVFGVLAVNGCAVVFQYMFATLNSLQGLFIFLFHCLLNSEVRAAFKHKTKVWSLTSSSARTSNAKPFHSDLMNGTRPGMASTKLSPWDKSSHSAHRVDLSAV
How it was run: as §1

CCR10 = target: T5, CCR10 (Homo sapiens, UniProt P46092); assay: PRESTO-Tango GPCR screen; conditions: 100 µM
T5 construct: purchased PRESTO-Tango GPCR kit (Roth lab / Addgene)
How it was run: as §1

VIPR1 = target: T6, VIPR1 (Homo sapiens, UniProt P32241); assay: PRESTO-Tango GPCR screen; conditions: 100 µM
T6 construct: purchased PRESTO-Tango GPCR kit (Roth lab / Addgene)
How it was run: as §1

GPR149 = target: T7, GPR149 (Homo sapiens, UniProt Q86SP6); assay: PRESTO-Tango GPCR screen; conditions: 100 µM
T7 construct: purchased PRESTO-Tango GPCR kit (Roth lab / Addgene)
T7 sequence (Q86SP6 whole entry): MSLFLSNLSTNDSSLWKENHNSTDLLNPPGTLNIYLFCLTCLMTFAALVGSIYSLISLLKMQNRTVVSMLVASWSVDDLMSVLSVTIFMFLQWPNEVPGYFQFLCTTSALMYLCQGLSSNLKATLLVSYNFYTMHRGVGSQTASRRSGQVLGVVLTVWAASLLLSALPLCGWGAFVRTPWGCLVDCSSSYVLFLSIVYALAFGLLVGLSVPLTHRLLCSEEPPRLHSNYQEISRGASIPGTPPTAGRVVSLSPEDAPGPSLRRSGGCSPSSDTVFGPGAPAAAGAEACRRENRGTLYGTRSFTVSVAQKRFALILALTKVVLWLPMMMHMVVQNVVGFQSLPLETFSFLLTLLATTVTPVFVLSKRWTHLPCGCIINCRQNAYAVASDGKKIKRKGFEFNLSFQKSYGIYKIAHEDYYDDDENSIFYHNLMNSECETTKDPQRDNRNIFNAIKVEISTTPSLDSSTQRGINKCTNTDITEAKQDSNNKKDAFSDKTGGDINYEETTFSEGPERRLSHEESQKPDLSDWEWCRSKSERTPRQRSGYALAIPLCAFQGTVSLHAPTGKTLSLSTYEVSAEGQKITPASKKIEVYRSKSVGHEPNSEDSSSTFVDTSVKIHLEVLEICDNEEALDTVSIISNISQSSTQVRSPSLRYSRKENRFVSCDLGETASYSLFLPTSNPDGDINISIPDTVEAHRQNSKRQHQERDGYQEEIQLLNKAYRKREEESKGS
How it was run: as §1

GHSR = target: T8, GHSR (Homo sapiens, UniProt Q92847); assay: PRESTO-Tango GPCR screen; conditions: 100 µM
T8 construct: purchased PRESTO-Tango GPCR kit (Roth lab / Addgene)
T8 sequence (Q92847 whole entry): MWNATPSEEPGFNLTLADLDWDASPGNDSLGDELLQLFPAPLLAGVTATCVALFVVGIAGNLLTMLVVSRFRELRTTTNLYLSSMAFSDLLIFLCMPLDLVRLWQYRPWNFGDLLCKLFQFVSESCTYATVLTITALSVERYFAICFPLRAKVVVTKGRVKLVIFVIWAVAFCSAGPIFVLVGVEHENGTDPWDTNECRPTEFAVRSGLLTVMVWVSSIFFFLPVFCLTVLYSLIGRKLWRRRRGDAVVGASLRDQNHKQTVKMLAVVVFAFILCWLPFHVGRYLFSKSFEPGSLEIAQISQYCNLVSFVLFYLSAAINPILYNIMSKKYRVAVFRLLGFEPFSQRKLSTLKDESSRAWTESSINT
How it was run: as §1

TBXA2R = target: T9, TBXA2R (Homo sapiens, UniProt P21731); assay: PRESTO-Tango GPCR screen; conditions: 100 µM
T9 construct: purchased PRESTO-Tango GPCR kit (Roth lab / Addgene)
T9 sequence (P21731 whole entry): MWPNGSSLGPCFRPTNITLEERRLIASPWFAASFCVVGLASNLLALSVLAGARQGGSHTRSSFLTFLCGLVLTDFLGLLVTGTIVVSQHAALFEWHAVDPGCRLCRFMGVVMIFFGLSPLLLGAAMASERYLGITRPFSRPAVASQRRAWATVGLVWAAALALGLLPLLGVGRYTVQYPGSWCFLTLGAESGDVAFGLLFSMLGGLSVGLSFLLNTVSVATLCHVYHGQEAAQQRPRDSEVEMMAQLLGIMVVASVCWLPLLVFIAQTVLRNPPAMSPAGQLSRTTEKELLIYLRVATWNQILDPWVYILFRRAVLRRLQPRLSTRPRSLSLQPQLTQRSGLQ
How it was run: as §1

AVPR2 = target: T10, AVPR2 (Homo sapiens, UniProt P30518); assay: PRESTO-Tango GPCR screen; conditions: 100 µM
T10 construct: purchased PRESTO-Tango GPCR kit (Roth lab / Addgene)
T10 sequence (P30518 whole entry): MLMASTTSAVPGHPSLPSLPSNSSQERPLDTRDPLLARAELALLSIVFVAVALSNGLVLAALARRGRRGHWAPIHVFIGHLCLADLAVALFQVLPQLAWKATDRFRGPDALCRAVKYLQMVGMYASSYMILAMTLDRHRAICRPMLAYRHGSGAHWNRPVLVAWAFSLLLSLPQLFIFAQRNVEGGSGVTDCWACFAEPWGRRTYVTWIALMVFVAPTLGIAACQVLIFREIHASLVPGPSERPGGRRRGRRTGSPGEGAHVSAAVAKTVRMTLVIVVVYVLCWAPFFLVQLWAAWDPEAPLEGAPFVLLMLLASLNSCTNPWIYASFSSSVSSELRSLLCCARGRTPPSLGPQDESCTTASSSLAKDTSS
How it was run: as §1

HTR1E = target: T11, HTR1E (Homo sapiens, UniProt P28566); assay: PRESTO-Tango GPCR screen; conditions: 100 µM
T11 construct: purchased PRESTO-Tango GPCR kit (Roth lab / Addgene)
How it was run: as §1

CASR = target: T12, CASR (Homo sapiens, UniProt P41180); assay: PRESTO-Tango GPCR screen; conditions: 100 µM
T12 construct: purchased PRESTO-Tango GPCR kit (Roth lab / Addgene)
How it was run: as §1

GPR157 = target: T13, GPR157 (Homo sapiens, UniProt Q5UAW9); assay: PRESTO-Tango GPCR screen; conditions: 100 µM
T13 construct: purchased PRESTO-Tango GPCR kit (Roth lab / Addgene)
T13 sequence (Q5UAW9 whole entry): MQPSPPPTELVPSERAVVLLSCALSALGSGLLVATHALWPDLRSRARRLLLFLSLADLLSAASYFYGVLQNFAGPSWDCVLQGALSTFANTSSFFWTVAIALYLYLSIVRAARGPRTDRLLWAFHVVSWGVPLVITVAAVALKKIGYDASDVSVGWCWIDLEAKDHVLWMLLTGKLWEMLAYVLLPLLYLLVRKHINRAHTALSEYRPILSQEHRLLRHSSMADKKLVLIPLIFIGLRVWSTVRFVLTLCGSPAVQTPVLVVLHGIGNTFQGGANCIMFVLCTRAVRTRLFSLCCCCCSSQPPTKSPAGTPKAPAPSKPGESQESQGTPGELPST
How it was run: as §1

FSHR = target: T14, FSHR (Homo sapiens, UniProt P23945); assay: PRESTO-Tango GPCR screen; conditions: 100 µM
T14 construct: purchased PRESTO-Tango GPCR kit (Roth lab / Addgene)
How it was run: as §1

GPR21 = target: T15, GPR21 (Homo sapiens, UniProt Q99679); assay: PRESTO-Tango GPCR screen; conditions: 100 µM
T15 construct: purchased PRESTO-Tango GPCR kit (Roth lab / Addgene)
How it was run: as §1

MTNR1B = target: T16, MTNR1B (Homo sapiens, UniProt P49286); assay: PRESTO-Tango GPCR screen; conditions: 100 µM
T16 construct: purchased PRESTO-Tango GPCR kit (Roth lab / Addgene)
How it was run: as §1

NMUR1 = target: T17, NMUR1 (Homo sapiens, UniProt Q9HB89); assay: PRESTO-Tango GPCR screen; conditions: 100 µM
T17 construct: purchased PRESTO-Tango GPCR kit (Roth lab / Addgene)
How it was run: as §1

GPR37L1 = target: T18, GPR37L1 (Homo sapiens, UniProt O60883); assay: PRESTO-Tango GPCR screen; conditions: 100 µM
T18 construct: purchased PRESTO-Tango GPCR kit (Roth lab / Addgene)
How it was run: as §1

GPRC5B = target: T19, GPRC5B (Homo sapiens, UniProt Q9NZH0); assay: PRESTO-Tango GPCR screen; conditions: 100 µM
T19 construct: purchased PRESTO-Tango GPCR kit (Roth lab / Addgene)
How it was run: as §1

GPR111 = target: T20, GPR111 (Homo sapiens, UniProt Q8IZF7); assay: PRESTO-Tango GPCR screen; conditions: 100 µM
T20 construct: purchased PRESTO-Tango GPCR kit (Roth lab / Addgene)
How it was run: as §1

GPR156 = target: T21, GPR156 (Homo sapiens, UniProt Q8NFN8); assay: PRESTO-Tango GPCR screen; conditions: 100 µM
T21 construct: purchased PRESTO-Tango GPCR kit (Roth lab / Addgene)
How it was run: as §1

CXCR3 = target: T22, CXCR3 (Homo sapiens, UniProt P49682); assay: PRESTO-Tango GPCR screen; conditions: 100 µM
T22 construct: purchased PRESTO-Tango GPCR kit (Roth lab / Addgene)
How it was run: as §1

TACR3 = target: T23, TACR3 (Homo sapiens, UniProt P29371); assay: PRESTO-Tango GPCR screen; conditions: 100 µM
T23 construct: purchased PRESTO-Tango GPCR kit (Roth lab / Addgene)
T23 sequence (P29371 whole entry): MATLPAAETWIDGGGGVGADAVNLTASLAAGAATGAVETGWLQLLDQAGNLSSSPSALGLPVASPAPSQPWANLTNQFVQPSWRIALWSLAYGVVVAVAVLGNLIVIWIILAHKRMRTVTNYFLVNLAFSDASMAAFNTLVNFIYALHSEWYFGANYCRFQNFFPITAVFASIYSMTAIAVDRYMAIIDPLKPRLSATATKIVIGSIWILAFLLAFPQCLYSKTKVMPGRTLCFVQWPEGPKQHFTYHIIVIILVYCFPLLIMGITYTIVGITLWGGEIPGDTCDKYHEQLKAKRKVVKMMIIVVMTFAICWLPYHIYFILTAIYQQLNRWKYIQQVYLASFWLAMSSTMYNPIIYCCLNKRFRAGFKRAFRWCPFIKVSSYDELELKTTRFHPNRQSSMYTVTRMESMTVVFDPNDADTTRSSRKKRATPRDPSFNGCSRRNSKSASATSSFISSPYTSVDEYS
How it was run: as §1

HRH2 = target: T24, HRH2 (Homo sapiens, UniProt P25021); assay: PRESTO-Tango GPCR screen and dose-response; conditions: for HRH2 dose-response raw reporter signal (Fig. 5b source data): replicate wells
T24 construct: expressed in transfected cells; host or cells: HTLA cells (HEK293 line stably expressing β-arrestin-TEV and tTA-Luciferase)
T24 sequence (P25021 whole entry): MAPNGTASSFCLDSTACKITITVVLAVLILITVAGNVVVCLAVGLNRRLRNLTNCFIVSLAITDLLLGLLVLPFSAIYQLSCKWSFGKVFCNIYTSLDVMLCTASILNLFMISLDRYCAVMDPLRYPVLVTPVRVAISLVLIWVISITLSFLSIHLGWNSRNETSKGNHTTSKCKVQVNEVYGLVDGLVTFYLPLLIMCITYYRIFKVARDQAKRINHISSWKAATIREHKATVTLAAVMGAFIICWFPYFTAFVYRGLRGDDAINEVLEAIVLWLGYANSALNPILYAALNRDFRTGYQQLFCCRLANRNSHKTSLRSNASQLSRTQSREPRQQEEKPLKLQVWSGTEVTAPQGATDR
How it was run: (§2)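 HTLA cells (HEK293 stably expressing β-arrestin-TEV and tTA-luciferase) transiently transfected with GPCR-Tango plasmids, then exposed to compound at 100 μM final for 20 h. Luminescence read after Bright-Glo; activation fold = RLU over PBS control. Dose-response spanned 10^−4 M to 10^−15 M.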

[1] = target: T25, histamine receptor H4 (HRH4) (Homo sapiens, UniProt Q9H3N8); assay: PRESTO-Tango GPCR screen and dose-response; conditions: for HRH4 dose-response raw reporter signal (Fig. 5b source data): replicate wells
T25 construct: expressed in transfected cells; host or cells: HTLA cells (HEK293 line stably expressing β-arrestin-TEV and tTA-Luciferase)
T25 sequence (Q9H3N8 whole entry): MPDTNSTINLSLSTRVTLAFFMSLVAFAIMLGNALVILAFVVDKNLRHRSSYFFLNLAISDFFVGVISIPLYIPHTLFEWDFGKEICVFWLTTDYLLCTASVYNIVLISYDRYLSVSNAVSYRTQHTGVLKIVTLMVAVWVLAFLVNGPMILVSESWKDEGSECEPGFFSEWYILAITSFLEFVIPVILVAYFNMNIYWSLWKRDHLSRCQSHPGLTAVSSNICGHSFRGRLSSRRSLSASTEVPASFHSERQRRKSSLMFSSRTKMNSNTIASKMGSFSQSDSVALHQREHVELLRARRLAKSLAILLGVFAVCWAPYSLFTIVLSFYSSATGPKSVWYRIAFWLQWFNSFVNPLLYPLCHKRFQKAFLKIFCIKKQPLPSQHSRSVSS
How it was run: as §2

HRH1 = target: T26, HRH1 (Homo sapiens, UniProt P35367); assay: PRESTO-Tango GPCR screen and dose-response; conditions: for HRH1 dose-response raw reporter signal (Fig. 5b source data): replicate wells
T26 construct: expressed in transfected cells; host or cells: HTLA cells (HEK293 line stably expressing β-arrestin-TEV and tTA-Luciferase)
T26 sequence (P35367 whole entry): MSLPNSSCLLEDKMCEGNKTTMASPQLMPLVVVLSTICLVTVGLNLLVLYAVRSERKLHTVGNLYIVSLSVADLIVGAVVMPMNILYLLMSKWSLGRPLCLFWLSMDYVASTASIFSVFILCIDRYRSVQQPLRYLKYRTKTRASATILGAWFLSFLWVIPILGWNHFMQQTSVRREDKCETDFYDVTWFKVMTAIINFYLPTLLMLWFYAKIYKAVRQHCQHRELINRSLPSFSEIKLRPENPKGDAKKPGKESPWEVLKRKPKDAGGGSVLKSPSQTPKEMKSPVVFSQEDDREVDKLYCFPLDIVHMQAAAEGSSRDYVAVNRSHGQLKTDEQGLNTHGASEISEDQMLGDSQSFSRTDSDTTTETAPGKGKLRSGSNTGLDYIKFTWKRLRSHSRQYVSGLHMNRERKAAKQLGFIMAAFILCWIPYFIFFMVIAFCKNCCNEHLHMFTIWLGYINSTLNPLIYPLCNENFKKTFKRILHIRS
How it was run: as §2

CC(C)Cc1ncc(CCCNC(=N)N)[nH]c1=O [compound 3] was tested, and the “GPCR activation (heatmap value)” value (NPS) was -0.7734, the “GPCR activation (heatmap value)” value (P2RY13) was -0.6143 and the “GPCR activation (heatmap value)” value (S1PR1) was -0.122. The “GPCR activation (heatmap value)” value (GPR133) was -0.6324, the “GPCR activation (heatmap value)” value (CCR10) was 0.9946 and the “GPCR activation (heatmap value)” value (VIPR1) was 0.4975. The “GPCR activation (heatmap value)” value (GPR149) was 0.9394, the “GPCR activation (heatmap value)” value (GHSR) was -0.1187 and the “GPCR activation (heatmap value)” value (TBXA2R) was 0.04774. The “GPCR activation (heatmap value)” value (AVPR2) was -1.811, the “GPCR activation (heatmap value)” value (HTR1E) was 0.5345 and the “GPCR activation (heatmap value)” value (CASR) was -0.8261. The “GPCR activation (heatmap value)” value (GPR157) was 0.4215, the “GPCR activation (heatmap value)” value (FSHR) was 0.2361 and the “GPCR activation (heatmap value)” value (GPR21) was 1.034. For the same compound, the “GPCR activation (heatmap value)” value (MTNR1B) was -0.5682, the “GPCR activation (heatmap value)” value (NMUR1) was -0.191 and the “GPCR activation (heatmap value)” value (GPR37L1) was -0.6695. For the same compound, the “GPCR activation (heatmap value)” value (GPRC5B) was 0.6932, the “GPCR activation (heatmap value)” value (GPR111) was -1.0133 and the “GPCR activation (heatmap value)” value (GPR156) was 0.1542. The “GPCR activation (heatmap value)” value (CXCR3) was 0.3957, the “GPCR activation (heatmap value)” value (TACR3) was -0.7714 and the “GPCR activation (heatmap value)” value (HRH2; HRH2, 100 µM) was -0.4047. For the same compound, the “HRH2 dose-response raw reporter signal (Fig. 5b source data)” value (“HRH2 dose-response raw reporter signal” for short) (HRH2; Log(10)Conc (M) -4) was 18 and 44 and 35, the “HRH2 dose-response raw reporter signal” value (HRH2; Log(10)Conc (M) -5) was 83 and 74 and 44 and the “HRH2 dose-response raw reporter signal” value (HRH2; Log(10)Conc (M) -6) was 38 (2×) and 44. For the same compound, the “HRH2 dose-response raw reporter signal” value (HRH2; Log(10)Conc (M) -7) was 91 and 59 and 47, the “HRH2 dose-response raw reporter signal” value (HRH2; Log(10)Conc (M) -8) was 50 (2×) and 41 and the “HRH2 dose-response raw reporter signal” value (HRH2; Log(10)Conc (M) -9) was 44 and 41 and 71. The “HRH2 dose-response raw reporter signal” value (HRH2; Log(10)Conc (M) -10) was 53 and 47 and 59, the “HRH2 dose-response raw reporter signal” value (HRH2; Log(10)Conc (M) -11) was 56 (2×) and 44 and the “HRH2 dose-response raw reporter signal” value (HRH2; Log(10)Conc (M) -12) was 41 (2×) and 27. The “HRH2 dose-response raw reporter signal” value (HRH2; Log(10)Conc (M) -13) was 29 and 47 and 56, the “HRH2 dose-response raw reporter signal” value (HRH2; Log(10)Conc (M) -14) was 106 and 71 and 50 and the “HRH2 dose-response raw reporter signal” value (HRH2; Log(10)Conc (M) -15) was 100 and 35 and 29. The “GPCR activation (heatmap value)” value ([1]; HRH4, 100 µM) was 2.217, the “HRH4 dose-response raw reporter signal (Fig. 5b source data)” value (“HRH4 dose-response raw reporter signal” below) ([1]; Log(10)Conc (M) -5) was 8773 and 9531 and the “HRH4 dose-response raw reporter signal” value ([1]; Log(10)Conc (M) -6) was 1621 and 2108. For the same compound, the “HRH4 dose-response raw reporter signal” value ([1]; Log(10)Conc (M) -7) was 649 and 769, the “HRH4 dose-response raw reporter signal” value ([1]; Log(10)Conc (M) -8) was 454 and 619 and the “HRH4 dose-response raw reporter signal” value ([1]; Log(10)Conc (M) -9) was 531 and 542. For the same compound, the “HRH4 dose-response raw reporter signal” value ([1]; Log(10)Conc (M) -10) was 578 and 380, the “HRH4 dose-response raw reporter signal” value ([1]; Log(10)Conc (M) -11) was 348 and 430 and the “HRH4 dose-response raw reporter signal” value ([1]; Log(10)Conc (M) -12) was 348 and 454. For the same compound, the “HRH4 dose-response raw reporter signal” value ([1]; Log(10)Conc (M) -13) was 286 and 351, the “HRH4 dose-response raw reporter signal” value ([1]; Log(10)Conc (M) -14) was 262 and 481 and the “HRH4 dose-response raw reporter signal” value ([1]; Log(10)Conc (M) -15) was 292 and 283. For the same compound, the EC50 ([1]; PRESTO-Tango dose-response, n = 3, read-out: EC50 (HRH4 activation)) was 12.5 µM, the “GPCR activation (heatmap value)” value (HRH1; HRH1, 100 µM) was 0.7784 and the “HRH1 dose-response raw reporter signal (Fig. 5b source data)” value (from here on “HRH1 dose-response raw reporter signal”) (HRH1; Log(10)Conc (M) -4) was 68060 and 70767. The “HRH1 dose-response raw reporter signal” value (HRH1; Log(10)Conc (M) -5) was 51882 and 55219, the “HRH1 dose-response raw reporter signal” value (HRH1; Log(10)Conc (M) -6) was 48232 and 47554 and the “HRH1 dose-response raw reporter signal” value (HRH1; Log(10)Conc (M) -7) was 45272 and 47466. For the same compound, the “HRH1 dose-response raw reporter signal” value (HRH1; Log(10)Conc (M) -8) was 44320 and 47843, the “HRH1 dose-response raw reporter signal” value (HRH1; Log(10)Conc (M) -9) was 43919 and 48335 and the “HRH1 dose-response raw reporter signal” value (HRH1; Log(10)Conc (M) -10) was 42578 and 45208. The “HRH1 dose-response raw reporter signal” value (HRH1; Log(10)Conc (M) -11) was 43999 and 46555, the “HRH1 dose-response raw reporter signal” value (HRH1; Log(10)Conc (M) -12) was 42215 and 46142 and the “HRH1 dose-response raw reporter signal” value (HRH1; Log(10)Conc (M) -13) was 45172 and 46997. For the same compound, the “HRH1 dose-response raw reporter signal” value (HRH1; Log(10)Conc (M) -14) was 41526 and 48557 and the “HRH1 dose-response raw reporter signal” value (HRH1; Log(10)Conc (M) -15) was 37080 and 42401.
